{
  "source": "patent US20080260774A1",
  "about": "“Alpha-galactosyl ceramide analogs and their use as immunotherapies” (priority 2007, published 2008)",
  "key": {"[1]": {"test_system": "human naïve NKTs (CD161^+CD3^+)", "assay": "Cytokine/chemokine secretion by human naïve CD161+CD3+ NKTs co-cultured with autologous immature CD14+ DCs", "assay_type": "cell-based", "conditions": "normalized to DMSO control"}, "naïve CD161^+/CD3^+ NKTs": {"test_system": "naïve CD161^+/CD3^+ NKTs", "assay": "Human NKT TCR activation (phosphoproteins), glycolipid presented by HeLa, HeLa-CD1d or iDCs, 10 μg/ml", "assay_type": "cell-based", "conditions": "10 μg/ml"}, "BALB/c mice [2]": {"test_system": "BALB/c mice", "assay": "Mouse serum cytokines/chemokines after IV, SubQ or IM injection", "assay_type": "in vivo", "conditions": "IV route"}, "BALB/c mice [3]": {"test_system": "BALB/c mice", "assay": "Expansion/activation of mouse splenocyte subpopulations 72 h after injection", "assay_type": "in vivo"}, "C57BL/6 mice": {"test_system": "C57BL/6 mice", "assay": "Expansion of NKT subsets in spleens of C57BL/6 mice", "assay_type": "in vivo", "conditions": "C57BL/6 Wt, 72 h post IV injection, 0.1 μg per mouse"}, "[4]": {"test_system": "syngeneic lung cancer (TC1) cells", "assay": "Lung cancer model in mice (TC1, IV inoculation)", "assay_type": "in vivo, mouse", "conditions": "IV administration"}, "[5]": {"test_system": "syngeneic breast cancer (4T1)", "assay": "Breast cancer model in mice (4T1, SubQ inoculation)", "assay_type": "in vivo, mouse", "conditions": "mice bearing breast cancer"}, "tetanus toxoid (TT)": {"test_system": "tetanus toxoid (TT)", "conditions": "mouse, in vivo"}, "[6]": {"test_system": "H5 of avian influenza viruses (pHA)", "assay_type": "in vivo, mouse"}, "[7]": {"assay_type": "in vivo, mouse", "conditions": "two weeks after the third vaccination", "description": "BALB/c mice were injected IM with globo H-DT/α-GalCer or globo H-DT/α-GalCer analogs three times at two weeks interval. Sera was collected two weeks after the third vaccination and tested for IgG and IgM anti-globo H-specific antibody at 1:480 and 1:240 dilution, respectively, using a glycan microarray."}, "[8]": {"test_system": "FLU-A virus serotype H1N1 (WSN)", "assay": "Cytopathetic effect / virus titer in MDCK cells infected with H1N1 (WSN)", "assay_type": "cell-based", "conditions": "pretreated at 10 μg/ml for four hours; 10TCID50; 48 hours post-infection", "description": "FIG. 60(A-B) show the cytopathetic effect (CPE) of Madin-Darby canine kidney (MDCK) cells in vitro. MDCK cells were pretreated with vehicle, α-GalCer or one of the α-GalCer analogs C13, C14 or C16 at 10 μg/ml for four hours, followed by infection with FLU-A virus serotype H1N1 (WSN) at 10TCID50.\nBALB/c mice were treated via intranasal route with control, α-GalCer (C1) or the α-GalCer analogs C13, C14 or C16 at one hour prior to virus challenge with H1N1 (WSN). […] In general, certain α-GalCer analogs may exert direct anti-viral effects, or act indirectly via immune stimulation. […] MDCK cells were pretreated with vehicle, α-GalCer or one of the α-GalCer analogs C13, C14 or C16 at 10 μg/ml for four hours, followed by infection with FLU-A virus serotype H1N1 (WSN) at 10TCID50."}, "Sphingomonas capsulata": {"test_system": "Sphingomonas capsulata", "assay": "Antibacterial efficacy in Sphingomonas capsulata infected mice", "assay_type": "in vivo, mouse", "text": "Sphingomonas capsulata is a common environmental bacterial strain that is found in many places such as the air and water. It can be easily identified on nutrient agar plates because of its yellow colony color. […] Since the antibacterial activities of glycolipid antigens are mediated through the activation of NKT cells by glycolipid bound-CD1-d molecules, evaluation of the antibacterial efficacies using the disease model of Sphingomonas capsulata infection will focus on the impact of the NKT mediated pathway that is activated by glycolipid bindings. Six to eight week old female C57BL/6 mice were injected IP with Sphingomonas capsulate cells. […] Twenty-four hours after bacterial infection, livers were removed from mice and homogenized. Colony formation units (CFU) of Sphingomonas capsulate in liver homogenates were determined by plating diluted samples on nutrient plates. Colonies were counted after incubation for 48 hours at 37° C. […] To confirm the antibacterial efficacies of these α-GalCer analogs, another study was conducted to repeat the study by treating infected mice with 50 μg/kg in the same disease model. […] Six to eight week old female C57BL/6 mice were injected IP with 5×10^8 Sphingomonas capsulate cells. Mice were grouped into treatment and control groups with 4-6 mice per group. Four hours after the infection, mice in the treatment group were injected IP with testing α-GalCer analogs at 50 or 100 μg/kg, and the control group mice were injected with same volumes of PBS. Twenty-four hours after bacterial infection, mice from all groups were sacrificed. Livers were removed from mice and homogenized in 0.9% NaCl, 0.02% Tween 80 using tissue homogenizers. Colony formation units (CFU) of Sphingomonas capsulate in liver homogenates were determined by plating diluted samples on nutrient plates. Colonies were counted after incubation for 48 hours at 37° C."}, "Klebsiella pneumoniae": {"test_system": "Klebsiella pneumoniae", "assay": "Antibacterial efficacy in K. pneumoniae infected mice", "assay_type": "in vivo, mouse", "conditions": "100 μg/kg twice at 4-hour and 8-hour after infection", "description": "K. pneumoniae is a Gram negative bacterium that causes liver abscess and is becoming a serious disease in Taiwan among diabetic patients. […] BALB/cByl female mice were administered a single dose of live K. pneumoniae by oral gavage. […] Twenty four hours after infection, both the liver and lungs were collected from each mouse, and homogenized. Bacterial counts were determined similarly as described above. BALB/c-Byl female mice (ten mice per group) were administered a single dose (10^6 CFU) of live-K. pneumoniae by oral gavage. Mice in the treatment groups were injected with testing α-GalCer analogs at 100 μg/kg twice at 4-hour and 8-hour after bacterial infection. Mice in the control group were injected with PBS at 4- and 8-hour. Twenty four hours after infection, all mice were sacrificed. Both livers and lungs were collected from each mouse, and homogenized. Bacterial counts were determined similarly as described above."}, "tumor metastasis": {"test_system": "tumor metastasis", "conditions": "mice; cited from earlier work"}, "mouse spleen cells": {"test_system": "mouse spleen cells", "conditions": "in vitro stimulation; cited from earlier work"}, "[9]": {"test_system": "mycobacterium tuberculosis, Pseudomonas aeruginosa", "conditions": "in vivo; cited from earlier work"}, "advanced cancers": {"test_system": "advanced cancers", "conditions": "cited from earlier work"}},
  "note": "“Also recorded” adds a separate entry of the source.",
  "data": [
    {"smiles": "CCCCCCCCCCCCCCCCCCCCCCCCCC(=O)N[C@@H](CO[C@H]1O[C@H](CO)[C@H](O)[C@H](O)[C@H]1O)[C@H](O)[C@H](O)CCCCCCCCCCCCCC", "note": "[C1, α-Galactosyl ceramide, reference compound]", "values": [
      {"measurement": "IFN/IL-4 ratio (TH1/TH2 bias)", "setting": "[1]", "result": "more TH2-biased"},
      {"measurement": "intracellular phospho-CD3ε", "setting": "naïve CD161^+/CD3^+ NKTs; presented by DCs", "result": 10.8, "unit": "folds"},
      {"measurement": "intracellular phospho-CD3ε", "setting": "naïve CD161^+/CD3^+ NKTs; presented by HeLa-CD1d cells", "result": "7.3 folds of control"},
      {"measurement": "phospho-ERK1/2", "setting": "naïve CD161^+/CD3^+ NKTs; with DCs", "result": 30, "unit": "folds"},
      {"measurement": "phospho-ERK1/2", "setting": "naïve CD161^+/CD3^+ NKTs; with HeLa-CD1d cells", "result": 6.6, "unit": "folds increase"},
      {"measurement": "IFN-γ/IL-4 ratio (TH1/TH2 bias)", "setting": "BALB/c mice [2]; 2 hours, compared with C1", "result": "less TH2 responses than C1"},
      {"measurement": "serum level of IFN-γ", "setting": "BALB/c mice [2]; over 72 hours", "result": "highest level of IFN-γ when given IV"},
      {"measurement": "B cell expansion", "setting": "BALB/c mice [3]; FIGS. 26E, 28E and 30E", "result": "more active than C1"},
      {"measurement": "CD8^+ T cell expansion/activation", "setting": "BALB/c mice [3]; FIGS. 26F, 28F and 30F", "result": "more active than C1"},
      {"measurement": "B cell expansion/activation", "setting": "BALB/c mice [3]; SubQ route", "result": "significant activities"},
      {"measurement": "CD4^+ T cells", "setting": "BALB/c mice [3]; SubQ route", "result": "most effective; also recorded: more active over control"},
      {"measurement": "total number of NKTs and its two subtypes NKT1 and NKT2", "setting": "C57BL/6 mice", "result": "increase of total number of NKTs"},
      {"measurement": "anti-cancer efficacy compared with C1", "setting": "[4]", "result": "significantly greater anti-cancer efficacy than C1"},
      {"measurement": "effect of route of administration (SubQ vs IV) on anti-tumor efficacy", "setting": "[5]", "result": "more effective than IV delivery in prolonging the survival of mice bearing breast cancer; also recorded: statistically better efficacy with SubQ delivery over IV route"},
      {"measurement": "antibody production compared with Alum", "setting": "tetanus toxoid (TT)", "result": "significantly greater antibody production than Alum"},
      {"measurement": "antibody response relative to conventional vaccine", "setting": "tetanus toxoid (TT)", "result": "~2", "unit": "fold"},
      {"measurement": "level of antibody after delayed boost compared with TT+Alum", "setting": "tetanus toxoid (TT)", "result": "twice as high as those given TT+Alum"},
      {"measurement": "adjuvant activities in enhancing the anti-HAc antibody titer", "setting": "[6]; 0.2 μg pHAc", "result": "better adjuvant activities than the others in enhancing the antibody titer"},
      {"measurement": "anti-H5 responses", "setting": "[6]; 5-45 μg H5 DNA vaccine, three weeks after first immunization", "result": "enhanced by α-GalCer at 5-30 μg H5 DNA, but reached a plateau at 45 μg"},
      {"measurement": "adjuvant effect on anti-H5 titers", "setting": "[6]; H5 DNA dose 0.2-5 μg, two weeks after second immunization", "result": "evident for all low dosages tested"},
      {"measurement": "anti-HA-specific IgG antibody", "setting": "[6]; three weeks after one dose immunization", "result": "enhanced"},
      {"measurement": "anti-globo H IgM antibody", "setting": "[7]; 1:240 dilution", "result": "not in C1 treated group"},
      {"measurement": "anti-globo H IgG antibody", "setting": "[7]; 1:480 dilution", "result": "elicited significant IgG antibody production"},
      {"measurement": "entry/replication of H1N1 virus (virus titer)", "setting": "[8]", "result": "slight inhibition of the entry/replication of H1N1 virus in vitro"},
      {"measurement": "difference in the values of the CFU per gram liver among efficacious groups", "setting": "Sphingomonas capsulata; 50 μg/kg", "result": "not statistically significant"},
      {"measurement": "CFU numbers in liver", "setting": "Sphingomonas capsulata; 100 μg/kg IP, 24 hour after bacterial infection", "result": "significantly lower than the control group"},
      {"measurement": "bacterial loads in mouse lung and liver", "setting": "Klebsiella pneumoniae", "result": "significantly reduce the bacterial loads in mouse lung and liver"},
      {"measurement": "tumor metastasis", "setting": "tumor metastasis", "result": "suppress tumor metastasis to liver, lung and lymph nodes"},
      {"measurement": "NKT proliferation and cytokine production", "setting": "mouse spleen cells", "result": "proliferation of NKTs and production of both IFN-[…] and IL-4"},
      {"measurement": "antibacterial activities", "setting": "[9]", "result": "amelioration of mycobacterium tuberculosis infections, clearance of lung infection by Pseudomonas aeruginosa"},
      {"measurement": "toxicity", "setting": "advanced cancers; human, in vivo", "result": "without any toxicity"},
      {"measurement": "clinical anti-tumor outcome", "setting": "advanced cancers; α-GalCer or α-GalCer-loaded iDCs, phase I", "result": "no durable tumor regression, stable disease was noted in several patients"}
    ]}
  ]
}
